According to US12150940B2, “WASp-protecting small molecules, compositions, methods and uses thereof in the treatment of innate and acquired immune-related disorders or conditions” (BAR ILAN UNIVERSITY, priority 2016, dated 2024):
Peptide text beside a SMILES is read from it. * marks the point of attachment. Cbz = O=C(OCc1ccccc1)*

Tests used:
WASp = WASp ubiquitylation in Meg-01 cells (immunoprecipitation, anti-ubiquitin blot); format: cell-based, human; conditions: Meg-01 cells after activation, treated vs untreated
Experimental: Freshly-isolated platelets were stimulated with 10 μM of TRAP-6 for the indicated time points, followed by lysis. WIP (FIG. 7A) or WASp (FIG. 7B) were immunoprecipitated from the lysates and analyzed by western blot for co-immunoprecipitation, using anti-WASp, anti-WIP or anti-PKCθ antibodies. WASp immunoprecipitates were immunoblotted for WASp ubiquitylation using anti-ubiquitin (Ub) antibody (FIG. 7C). Ubiquitylated WASp appears as a smear of bands above the MW of 65 kDa with a prominent band at ˜81 kDa. […] Blots are representative of three independent experiments. Meg-01 megakaryocyte cell line was activated in the presence (+) or absence (−) of MG132, followed by lysis (FIG. 7E). WASp ubiquitylation was determined by co-immunoprecipitation analysis as in FIG. 7C. […] PKCθ and WASp protein expression levels were analyzed by western blot with anti-PKCθ and anti-WASp antibodies, and with anti-GAPDH as loading control. Relative protein expression was determined by densitometric analysis and is presented below the corresponding lanes. […]
Insufficient WASp expression in platelets and megakaryocytes is the cause of microthrombocytopenia of WAS/XLT patients (Albert et al 2010, Lutskiy et al, 2007). […] Similarly, reciprocal co-precipitation was detected between WASp and WIP during the first two minutes of activation when WASp was immunoprecipitated (FIG. 7B). […]

WAVE2 = biological target: T1, WAVE2 (Homo sapiens, UniProt Q9Y6W5); experiment: MST binding, YFP-WAVE2 in HEK 293T cell lysate
T1 construct: expressed in transfected cells; host or cells: HEK 293T, transient transfection; unpurified cell lysate
Experimental: Diluted cell lysates of YFP-WASp/N-WASp/WAVE2-expressing HEK 293T cells were incubated with serially-diluted (100 μM-3 nM) SMCs. The mixed lysates and SMCs were then loaded into standard-treated Monolith™ capillaries and the fluorescence of the samples was measured by the Monolith NT.115 instrument at 60% MST power. Binding curves of WASp with SMC #6 (FIG. 3A), SMC #30 (FIG. 3B), SMC #33 (FIG. 3C), SMC #34 (FIG. 3D) and Y-27632 (FIG. 3E) or of N-WASp (FIG. 3F) or WAVE2 (FIG. 3G) with SMC #34 were generated by the NanoTemper Analysis 2.231 software. Normalized fluorescence (hot fluorescence/initial fluorescence) is plotted as a function of SMC concentration. […]
YFP-tagged WASp was obtained from cell lysates of Human Embryonic Kidney (HEK) 293T, transiently transfected with YFP-WASp/WAVE2/N-WASp by DNA-calcium phosphate co-precipitation as previously described (Reicher et al, 2012). […] After loading into the instrument (Monolith NT.115, NanoTemper), the samples were measured by standard protocols at 60% MST power. […] KD values were determined using the NanoTemper analysis software (NT Analysis 1.5.37 or 2.2.31).
Following this in silico screening, the inventors identified eight SMCs (#6, #23, #24, #25, #30, #32, #33, #34, see Table 1). […] The SMCs that specifically bind the degradation pocket of WASp were further evaluated by the inventors.

T1 sequence (Q9Y6W5 whole entry, species assumed): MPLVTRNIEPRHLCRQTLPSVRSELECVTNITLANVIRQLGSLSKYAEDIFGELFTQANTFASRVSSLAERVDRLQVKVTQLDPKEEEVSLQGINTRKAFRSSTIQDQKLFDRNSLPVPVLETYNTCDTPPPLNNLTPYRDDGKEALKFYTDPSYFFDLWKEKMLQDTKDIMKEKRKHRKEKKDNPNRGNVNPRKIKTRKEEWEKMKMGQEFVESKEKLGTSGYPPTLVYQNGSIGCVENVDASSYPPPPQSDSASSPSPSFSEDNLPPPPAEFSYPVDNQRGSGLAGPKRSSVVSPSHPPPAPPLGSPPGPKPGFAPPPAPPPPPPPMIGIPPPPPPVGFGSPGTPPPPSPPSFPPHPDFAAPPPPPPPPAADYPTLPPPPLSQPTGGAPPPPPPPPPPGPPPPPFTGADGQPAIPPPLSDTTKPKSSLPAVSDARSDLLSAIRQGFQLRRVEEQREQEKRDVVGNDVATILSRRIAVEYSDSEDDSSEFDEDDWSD

Compound	WASp ubiquitylation (WASp)	binding to WAVE2 (WAVE2)
CC(C)C[C@@H](C=O)NC(=O)[C@H](CC(C)C)NC(=O)[C@H](CC(C)C)NC(=O)OCc1ccccc1 [MG132] (Cbz-Leu-Leu-Leu-aldehyde)	more intense	
CC1CCCC(C)N1C(=O)CSc1nnc(COc2cccc3cccnc23)o1 (centres unmarked) [SMC #34, 1-(2,6-dimethylpiperidin-1-yl)-2-[[5-(quinolin-8-yloxymethyl)-1,3,4-oxadiazol-2-yl]sulfanyl]ethanone]		no binding
